From patent publication US20160310584A1, “FORMULATIONS FOR NEOPLASIA VACCINES” (THE BROAD INSTITUTE INC., priority 2013, published 2016)

Assays:
[1] = Peptide diluent matrix (precipitation on dilution of DMSO dissolved peptides); assay type: physicochemical; details: 5 peptides in one vial diluted to 400 μg/mL
Description: Additional peptide solubility conditions were tested. Peptides CS6709, CS6712, CS6720, CS6726, and CS6783 were weighed at approximately 10 mg each. The peptides were then dissolved in approximately 200 μL USP grade DMSO to obtain a 50 mg/mL concentration for each peptide. […] The sample appeared to be cloudy. […] The volume of CS6709 added to the single vial was 120 μL. […] Upon addition of the PBS pH 7.4, it was observed that one or more of the peptides had precipitated out. To determine which of the peptides precipitated, Applicants followed the matrix in Table 5 below using very small amounts (10-20 μL) of the DMSO dissolved peptides and adding these peptides to the various liquids.

[2] = Peptide solubility evaluation: dissolution in DMSO, dilution in D5W with or without succinate; assay type: physicochemical; details: DMSO/D5W; Table 4; Y/N; diluted to 2 mg/ml; read-out: Solubility In DMSO/D5W
Description: In a representative procedure, peptides were weighed and corrected for % peptide content, and then dissolved in DMSO to a concentration of 50 mg/mL. The DMSO/Peptide solution was then diluted with 5 mM sodium succinate in D5W to a 2 mg/mL peptide concentration.
Additional peptide solubility conditions were tested. Peptides CS6709, CS6712, CS6720, CS6726, and CS6783 were weighed at approximately 10 mg each. The peptides were then dissolved in approximately 200 μL USP grade DMSO to obtain a 50 mg/mL concentration for each peptide. […] Additional 50 μL increments of DMSO were added to Peptide CS6709 up to 400 μL; for a total of 600 μL of DMSO.
Based on gross weight and peptide content, 15 mg (net weight) or slightly more of each individual peptide are weighed and 100% USP Grade DMSO […] is added to achieve a final peptide concentration of 50 mg/ml.

Precipitation when PBS pH 7.4 was added as diluent to the peptide mixture [1]: precipitate
solubility [2]: < 2000 µg/mL
Substance: H-LLTDRNTSGTTFTLLGVSDYPELQVPLFLVFLA-OH [CS6783]
